{
  "source": "the supplement of paper PMC10307832",
  "assay_in_all_cases": "relative viability (nuclei count vs DMSO), 5 days (fraction); higher = more cells survive",
  "key": {"TGX 221 + Alpelisib": {"compound": "CC1=CN2C(=O)C=C(N=C2C(=C1)C(C)NC3=CC=CC=C3)N4CCOCC4 [TGX 221] + Cc1nc(NC(=O)N2CCC[C@H]2C(N)=O)sc1-c1ccnc(C(C)(C)C(F)(F)F)c1 [Alpelisib] (partner 2 µM)", "method_in_brief": "(§1)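 After 5 days of treatment, lung cancer cells in 1536-well plates were fixed and stained in a single step (final 0.05% Triton X-100, 1% formaldehyde, 1 ug/ml Hoechst) and their nuclei counted on 4× images. Treatment had been applied by pin tool the day after seeding as one drug alone or as a fixed anchor-drug dose with five library-drug doses (not always all listed) in √10 steps. Relative viability is the nuclei count of treated wells divided by that of vehicle wells, and values are medians of duplicate plates.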"}, "TGX 221 + AZD7762": {"compound": "CC1=CN2C(=O)C=C(N=C2C(=C1)C(C)NC3=CC=CC=C3)N4CCOCC4 [TGX 221] + NC(=O)Nc1cc(-c2cccc(F)c2)sc1C(=O)N[C@H]1CCCNC1 [AZD7762] (partner 0.2 µM)", "method_in_brief": "as §1"}, "TGX 221 + Olaparib": {"compound": "CC1=CN2C(=O)C=C(N=C2C(=C1)C(C)NC3=CC=CC=C3)N4CCOCC4 [TGX 221] + O=C(c1cc(Cc2n[nH]c(=O)c3ccccc23)ccc1F)N1CCN(C(=O)C2CC2)CC1 [Olaparib] (partner 8 µM)", "method_in_brief": "as §1"}, "[1]": {"compound": "O=C(CCCCCCNC(=O)c1cnc(N(c2ccccc2)c2ccccc2)nc1)NO [Ricolinostat] + Nc1ncn([C@H]2C[C@H](O)[C@@H](CO)O2)c(=O)n1 [Decitabine] (partner 2 µM)", "method_in_brief": "as §1"}},
  "data": [
    {"cell line": "NCI-H1792", "values": [
      {"measurement": "relative viability", "setting": "TGX 221 + Alpelisib; first compound 0.08 µM", "value": 0.609},
      {"measurement": "relative viability", "setting": "TGX 221 + Alpelisib; first compound 0.253 µM", "value": 0.599},
      {"measurement": "relative viability", "setting": "TGX 221 + Alpelisib; first compound 0.8 µM", "value": 0.698},
      {"measurement": "relative viability", "setting": "TGX 221 + Alpelisib; first compound 2.53 µM", "value": 0.511},
      {"measurement": "relative viability", "setting": "TGX 221 + Alpelisib; first compound 8 µM", "value": 0.432},
      {"measurement": "relative viability", "setting": "TGX 221 + AZD7762; first compound 0.08 µM", "value": 0.625},
      {"measurement": "relative viability", "setting": "TGX 221 + AZD7762; first compound 0.253 µM", "value": 0.625},
      {"measurement": "relative viability", "setting": "TGX 221 + AZD7762; first compound 0.8 µM", "value": 0.602},
      {"measurement": "relative viability", "setting": "TGX 221 + AZD7762; first compound 2.53 µM", "value": 0.556},
      {"measurement": "relative viability", "setting": "TGX 221 + AZD7762; first compound 8 µM", "value": 0.418},
      {"measurement": "relative viability", "setting": "TGX 221 + Olaparib; first compound 0.08 µM", "value": 0.267},
      {"measurement": "relative viability", "setting": "TGX 221 + Olaparib; first compound 0.253 µM", "value": 0.385},
      {"measurement": "relative viability", "setting": "TGX 221 + Olaparib; first compound 0.8 µM", "value": 0.386},
      {"measurement": "relative viability", "setting": "TGX 221 + Olaparib; first compound 2.53 µM", "value": 0.383},
      {"measurement": "relative viability", "setting": "TGX 221 + Olaparib; first compound 8 µM", "value": 0.287},
      {"measurement": "relative viability", "setting": "[1]; first compound 0.253 µM", "value": 0.484},
      {"measurement": "relative viability", "setting": "[1]; first compound 0.8 µM", "value": 0.492},
      {"measurement": "relative viability", "setting": "[1]; first compound 2.53 µM", "value": 0.366}
    ]}
  ]
}
